PMC12428237, “Study on the Calcium Transport-Promoting Property and Mechanism of the Peptide–Calcium Complex DEEENDQVK–Ca Based on a Caco-2 Monolayer Model” (Foods, 2025)

Columns and labels:
TRPV6 = assay: RT-qPCR, TRPV6 mRNA expression; assay type: cell-based, human; details: Caco-2 monolayer, 24 h, 2 mg/mL DK–Ca or 2 mg/mL DK + 7.5 mM CaCl2; normalized to GAPDH, 2^-ΔΔCt; n = 3
Method: (§1) The expression levels of genes related to calcium transport channels were determined following the method of Li et al.. After 21 days of establishing the Caco-2 monolayer model, the monolayers were treated for 24 h with a complete medium containing 2 mg/mL DK–Ca or 2 mg/mL DK + 7.5 mM CaCl2. The group without an added sample served as the control group. Subsequently, the monolayers were washed thrice with HBSS buffer before cell lysis using 200 μL RNAiso Plus. Total RNA was extracted, and first-strand cDNA synthesis was subsequently performed with the PrimeScript® RT reagent kit as per the kit manufacturer’s instructions. Using cDNA as a template, RT-qPCR was performed with gene-specific primers targeting TRPV6, calbindin-D9k, PMCA1b, occludin, and claudin-2. The standard procedure for PCR amplification was as follows: 95 °C for 30 s, followed by 40 cycles of 95 °C for 5 s, 60 °C for 30 s, and 72 °C for 1 min. Target gene expression level was normalized to GAPDH and calculated using the 2^^(-ΔΔCt) relative quantification method. In experimental groups, GAPDH served as the internal reference gene for normalization. All primer sequences used in this study are detailed in Table S1.

Caco-2 monolayer [1] = assay: Calcium transport channel assay with channel regulators; assay type: cell-based, human; details: then 2 mg/mL sample, 120 min, 37 °C, n = 3
Method: Before the calcium transport channel assay, 0.5 mL of HBSS buffer containing different channel regulators was added to the AP sides of the Transwell chambers. These channel regulators included 2-APB (25 μmol/L) as a calcium channel inhibitor of TRPV6, cytochalasin D (0.5 μmol/ mL) as a paracellular channel promoter, and mβCD (3 mmol/L) as an endocytic channel inhibitor. The group without the added channel regulator served as the control group. The BL side received a 1.5 mL HBSS buffer. Following 30 min incubation, solutions were removed from both sides. The AP side was then loaded with 0.5 mL of either DK–Ca (2 mg/mL) or 2 mg/mL DK + 7.5 mM CaCl2 solution, while the BL side received 1.5 mL HBSS. After 120 min incubation at 37 °C and 5% CO2, the BL solution was collected for calcium transport analysis.

[2] = Caco-2; cited from earlier work
claudin-2 = assay: RT-qPCR, claudin-2 mRNA expression; assay type: cell-based, human; details: Caco-2 monolayer, 24 h, 2 mg/mL DK–Ca or 2 mg/mL DK + 7.5 mM CaCl2; normalized to GAPDH, 2^-ΔΔCt; n = 3
Method: as §1

Caco-2 monolayer [3] = assay: Calcium transport assay in Caco-2 monolayer model; assay type: cell-based, human; details: 120 min
Method: Caco-2 cells (passages 15–30) were seeded at 1 × 10^5 cells/mL in Transwell chambers (12 mm, 0.4 μm pores, polycarbonate membrane, 1.12 cm^2 area) to establish a Caco-2 monolayer model. The culture medium (0.5 mL in the apical and 1.5 mL in the basolateral) was refreshed every 48 h (first week), then daily (next two weeks). The integrity of the Caco-2 cell monolayer model was verified by the following multiple indicators: Transepithelial electrical resistance (TEER) was monitored every 48 h using an epithelial voltohmmeter (RE1600, Beijing Jingong Hongtai Technology Co., Ltd., Beijing, China). Alkaline phosphatase (ALP) activity was measured on days 8, 12, 14, 16, and 21 after inoculation utilizing an ALP assay kit, following the manufacturer’s protocol. Transepithelial permeability was evaluated using sodium fluorescein following the method of Qiu et al..
Caco-2 monolayer models with a TEER value exceeding 500 Ω·cm^2 are permitted for calcium transport studies. Following three sequential washes with Hank’s balanced salt solution (HBSS; calcium/magnesium-free, pH 7.4), monolayers were equilibrated at 37 °C for 30 min. Afterward, the Transwell chambers were moved to fresh receiver plates for transport assays.
Concentration-dependent CaCl2 transport assay: 0.5 mL of CaCl2 solution (1.5~10 mM) was added to the apical (AP) side. The basolateral (BL) side contained 1.5 mL prewarmed HBSS. After 120 min incubation at 37 °C and 5% CO2, the BL side solution was collected for calcium transport analysis.
Time-dependent CaCl2 transport assay: The AP side contained 0.5 mL of 7.5 mM CaCl2 solution, and the BL side 1.5 mL prewarmed HBSS. At designated intervals (30~180 min), 1 mL BL side solution was collected and replaced with equal volumes of fresh HBSS buffer to maintain consistency.
Different concentrations of DK solution (0.5~2 mg/mL, 0.5 mL) containing 7.5 mM CaCl2, or 0.5 mL of DK–Ca solution (0.5~2 mg/mL), were added to the AP side. The BL side contained 1.5 mL prewarmed HBSS. The control group contained 7.5 mM CaCl2 alone on the AP side. At designated intervals (30~180 min), 1 mL BL side solution was collected and replaced with equal volumes of fresh HBSS buffer to maintain consistency.
Calcium concentration in the collected sample was measured using a calcium colorimetric assay kit at 575 nm. Transported calcium was calculated as follows:(1) Tn=1.5Cn+1×∑k=1n-1Ck […]

occludin = assay: RT-qPCR, occludin mRNA expression; assay type: cell-based, human; details: Caco-2 monolayer, 24 h, 2 mg/mL DK–Ca or 2 mg/mL DK + 7.5 mM CaCl2; normalized to GAPDH, 2^-ΔΔCt; n = 3
Method: as §1

## DEEENDQVK–Ca [DK–Ca, complex formed by chemically chelating DK with CaCl2]
TRPV6
  TRPV6 mRNA expression, upregulation compared to the untreated control group: 2.70 fold
Caco-2 monolayer [1]; 2-APB (25 μmol/L, TRPV6 inhibitor) pre-incubation 30 min on AP side
  reduction of transported calcium by 2-APB treatment compared to the control group: 43.94%
Caco-2 monolayer [1]; cytochalasin D (0.5 μmol/ mL, paracellular channel promoter) pre-incubation 30 min on AP side
  improvement of transported calcium by cytochalasin D treatment compared to the control group: 14.82%
Caco-2 monolayer [1]; mβCD (3 mmol/L, endocytic channel inhibitor) pre-incubation 30 min on AP side
  reduction of transported calcium by mβCD treatment compared to the control group: 12.35%
[2]
  calcium dialysis rate relative to CaCO3: 1.79 times
  solubility relative to blank control group (CaCO3): 1.56 times
claudin-2
  claudin-2 mRNA expression, upregulation compared to the control group: 1.50 fold
Caco-2 monolayer [3]; 2 mg/mL DK–Ca (calcium content 300 μg/mL) on AP side, AP to BL, HBSS pH 7.4, 37 °C, calcium colorimetric kit 575 nm, mean ± SD, n = 3
  transported calcium: 74.11 ± 1.25 μg/well
Caco-2 monolayer [3]; calcium content 300 μg/mL (2 mg/mL peptide sample), AP to BL, 37 °C
  transported calcium, fold higher than that of the CaCl2 control group: 1.83 fold
Caco-2 monolayer [3]; equivalent calcium dose (7.5 mM)
  calcium transport-promoting capacity relative to DK + CaCl2: 1.37 times
occludin
  occludin mRNA expression compared to the control group: unchanged
